Measurements from US9670213B2, “Pteridine ketone derivative and applications thereof as EGFR, BLK, and FLT3 inhibitor” (EAST CHINA UNIVERSITY OF SCIENCE AND TECHNOLOGY, priority 2012, dated 2017).

Tests used:
Assay type in all cases: biochemical
EGFR-L858R = EGFR-L858R (Homo sapiens (Human), UniProt P00533, L858R); test: In vitro EGFR kinase activity assay (Z'-Lyte); conditions: read-out: Inhibitory activity on EGFR kinase (IC50, nM) L858R;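 note: Cell-free kinase reaction with peptide substrate and ATP, 1.5 h at room temperature, then development step cleaving non-phosphorylated peptide, 10-point dilution series 0.051–1000 nM, phosphopeptide as 100% phosphorylation control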
Protocol: Inhibitory effects in vitro of the compounds provided in the present invention on EGFR kinase activity was tested as follows:
10 concentration gradients, from 5.1×10^−11 mol/L to 1.0×10^−6 mol/L, were set for all of the compounds to be tested.
10 μL of kinase reaction system comprised 2.5 μL of compound solution, 5 μL of Kinase/peptide mixture, and 2.5 μL of ATP solution. 5 μL of phosphopeptide solution was used in place of kinase/peptide mixture as 100% phosphorylation control. […] After thoroughly mixing the solution within the plate, the plate was incubated at room temperature for 1.5 hours. 5 μL of DevelopmentSolution was added into each well, and then the plate was incubated at room temperature for another 1 hour, and non-phosphorylated peptide was cleaved within this period. Finally, the reaction was quenched by adding 5 μL of Stop Reagent. The Plate was measured with EnVision Multilabel Reader (Perkin Elmer). Experimental data were calculated by using GraphPad Prism version 4.0. Each experiment was repeated more than three times.

AUR B = AUR B (Homo sapiens (Human), UniProt Q96GD4); test: Kinase selectivity analysis (Caliper mobility shift assay); conditions: for inhibition at 1 µM: read-out: % inhibition (1 μM), 1 μM; for inhibition at 10 µM: read-out: % inhibition (10 μM), 10 μM
Sequence of AUR B (Q96GD4 whole entry): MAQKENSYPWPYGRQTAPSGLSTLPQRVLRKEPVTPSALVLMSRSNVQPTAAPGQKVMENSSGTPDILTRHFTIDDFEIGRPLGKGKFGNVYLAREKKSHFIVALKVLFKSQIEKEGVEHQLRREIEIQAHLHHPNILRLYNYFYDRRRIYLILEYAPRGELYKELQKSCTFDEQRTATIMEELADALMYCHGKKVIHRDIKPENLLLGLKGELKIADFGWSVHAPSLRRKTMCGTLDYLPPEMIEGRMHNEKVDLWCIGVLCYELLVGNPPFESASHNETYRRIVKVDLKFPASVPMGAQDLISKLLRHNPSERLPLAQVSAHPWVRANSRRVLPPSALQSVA
Protocol: (§1) Kinase selectivity analysis: kinase selectivity experiment was performed by Shanghai ChemPartner using Caliper assay screening platform. All of kinases and other materials were purchased from commercial companies.
(§2) 3. Preparation of assay plate: 5 μL of solution from each well of the 96-well temporary plate was added into a 384-well plate, and the experiment was independently repeated.
(§3) 5. Caliper readings: experimental data were collected on Caliper.
(§4) 6. Curve fitting: 1) conversion data were replicated from Caliper program. 2) the conversion value was converted into inhibition rate, inhibition rate %=(maximum−conversion value)/(maximum−minimum)*100, wherein “maximum” represents DMSO control, and minimum represents the low control.

C-MET = C-MET (Homo sapiens (Human), UniProt P08581); test: as above; conditions: for inhibition at 1 µM: read-out: % inhibition (1 μM), 1 μM; for inhibition at 10 µM: read-out: % inhibition (10 μM), 10 μM
Protocol: as §1, §2, §3, §4

CDK2 = CDK2 (Homo sapiens (Human), UniProt P24941); test: as above; conditions: for inhibition at 1 µM: read-out: % inhibition (1 μM), CDK2, 1 μM; for inhibition at 10 µM: read-out: % inhibition (10 μM), CDK2, 10 μM
Protocol: as §1, §2, §3, §4

ERK1 = ERK1 (Homo sapiens (Human), UniProt P27361); test: as above; conditions: for inhibition at 1 µM: read-out: % inhibition (1 μM), ERK1, 1 μM; for inhibition at 10 µM: read-out: % inhibition (10 μM), ERK1, 10 μM
Sequence of ERK1 (P27361 whole entry, species assumed): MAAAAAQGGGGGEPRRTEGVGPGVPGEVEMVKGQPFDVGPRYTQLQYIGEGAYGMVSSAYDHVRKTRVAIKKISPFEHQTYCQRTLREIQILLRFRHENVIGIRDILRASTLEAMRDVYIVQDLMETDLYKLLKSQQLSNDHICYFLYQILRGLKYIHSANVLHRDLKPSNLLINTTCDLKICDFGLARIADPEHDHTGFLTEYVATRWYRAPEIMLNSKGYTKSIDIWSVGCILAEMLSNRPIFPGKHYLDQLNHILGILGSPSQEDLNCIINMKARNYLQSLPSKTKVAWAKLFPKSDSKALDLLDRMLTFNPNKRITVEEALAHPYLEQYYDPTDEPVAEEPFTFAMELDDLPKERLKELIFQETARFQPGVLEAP
Protocol: as §1, §2, §3, §4

FGFR1 = FGFR1 (Homo sapiens (Human), UniProt P11362); test: as above; conditions: for inhibition at 1 µM: read-out: % inhibition (1 μM), FGFR1, 1 μM; for inhibition at 10 µM: read-out: % inhibition (10 μM), FGFR1, 10 μM
Sequence of FGFR1 (P11362 22-822, species assumed): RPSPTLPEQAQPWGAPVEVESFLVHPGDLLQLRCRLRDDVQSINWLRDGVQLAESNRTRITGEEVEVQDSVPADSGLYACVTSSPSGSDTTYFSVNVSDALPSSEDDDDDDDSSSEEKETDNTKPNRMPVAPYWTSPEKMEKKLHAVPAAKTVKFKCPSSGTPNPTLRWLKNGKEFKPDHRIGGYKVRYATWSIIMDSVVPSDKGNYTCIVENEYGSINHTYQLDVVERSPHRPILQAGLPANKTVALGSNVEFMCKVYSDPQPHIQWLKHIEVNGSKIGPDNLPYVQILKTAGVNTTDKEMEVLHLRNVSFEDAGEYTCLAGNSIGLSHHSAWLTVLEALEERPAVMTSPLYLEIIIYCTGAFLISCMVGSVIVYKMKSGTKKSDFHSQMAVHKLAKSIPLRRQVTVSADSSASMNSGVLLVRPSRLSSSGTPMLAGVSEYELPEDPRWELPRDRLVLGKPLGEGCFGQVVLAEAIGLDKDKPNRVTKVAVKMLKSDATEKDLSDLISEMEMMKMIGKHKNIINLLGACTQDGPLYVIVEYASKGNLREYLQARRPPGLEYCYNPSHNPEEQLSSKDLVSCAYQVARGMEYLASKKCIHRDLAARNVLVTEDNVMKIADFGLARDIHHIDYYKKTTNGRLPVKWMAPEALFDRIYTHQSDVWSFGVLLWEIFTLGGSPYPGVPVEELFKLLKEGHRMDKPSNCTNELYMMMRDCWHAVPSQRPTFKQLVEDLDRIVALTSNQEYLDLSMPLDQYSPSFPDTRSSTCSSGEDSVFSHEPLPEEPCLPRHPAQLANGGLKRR
Protocol: as §1, §2, §3, §4

FLT1 = FLT1 (Homo sapiens (Human), UniProt P17948); test: as above; conditions: for inhibition at 1 µM: read-out: % inhibition (1 μM), FLT1, 1 μM; for inhibition at 10 µM: read-out: % inhibition (10 μM), FLT1, 10 μM
Protocol: as §1, §2, §3, §4

GSK3b = GSK3b (Homo sapiens (Human), UniProt P49841); test: as above; conditions: for inhibition at 1 µM: read-out: % inhibition (1 μM), 1 μM; for inhibition at 10 µM: read-out: % inhibition (10 μM), 10 μM
Sequence of GSK3b (P49841 whole entry, species assumed): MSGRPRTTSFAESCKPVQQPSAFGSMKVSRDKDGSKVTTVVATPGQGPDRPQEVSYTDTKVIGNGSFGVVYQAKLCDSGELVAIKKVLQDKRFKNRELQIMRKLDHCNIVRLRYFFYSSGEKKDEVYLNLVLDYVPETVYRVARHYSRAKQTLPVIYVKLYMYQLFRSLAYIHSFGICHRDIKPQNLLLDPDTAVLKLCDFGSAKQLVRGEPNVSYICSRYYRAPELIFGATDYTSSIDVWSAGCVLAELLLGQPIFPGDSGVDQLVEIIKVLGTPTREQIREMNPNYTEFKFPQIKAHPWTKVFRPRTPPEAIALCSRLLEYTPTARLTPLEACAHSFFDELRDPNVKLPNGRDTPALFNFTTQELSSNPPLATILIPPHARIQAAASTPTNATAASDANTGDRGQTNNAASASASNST
Protocol: as §1, §2, §3, §4

JAK2 = JAK2 (Homo sapiens (Human), UniProt O60674); test: as above; conditions: for inhibition at 1 µM: read-out: % inhibition (1 μM), JAK2, 1 μM; for inhibition at 10 µM: read-out: % inhibition (10 μM), JAK2, 10 μM
Protocol: as §1, §2, §3, §4

KDR = KDR (Homo sapiens (Human), UniProt P35968); test: as above; conditions: for inhibition at 1 µM: read-out: % inhibition (1 μM), 1 μM; for inhibition at 10 µM: read-out: % inhibition (10 μM), 10 μM
Sequence of KDR (P35968 20-1356, species assumed): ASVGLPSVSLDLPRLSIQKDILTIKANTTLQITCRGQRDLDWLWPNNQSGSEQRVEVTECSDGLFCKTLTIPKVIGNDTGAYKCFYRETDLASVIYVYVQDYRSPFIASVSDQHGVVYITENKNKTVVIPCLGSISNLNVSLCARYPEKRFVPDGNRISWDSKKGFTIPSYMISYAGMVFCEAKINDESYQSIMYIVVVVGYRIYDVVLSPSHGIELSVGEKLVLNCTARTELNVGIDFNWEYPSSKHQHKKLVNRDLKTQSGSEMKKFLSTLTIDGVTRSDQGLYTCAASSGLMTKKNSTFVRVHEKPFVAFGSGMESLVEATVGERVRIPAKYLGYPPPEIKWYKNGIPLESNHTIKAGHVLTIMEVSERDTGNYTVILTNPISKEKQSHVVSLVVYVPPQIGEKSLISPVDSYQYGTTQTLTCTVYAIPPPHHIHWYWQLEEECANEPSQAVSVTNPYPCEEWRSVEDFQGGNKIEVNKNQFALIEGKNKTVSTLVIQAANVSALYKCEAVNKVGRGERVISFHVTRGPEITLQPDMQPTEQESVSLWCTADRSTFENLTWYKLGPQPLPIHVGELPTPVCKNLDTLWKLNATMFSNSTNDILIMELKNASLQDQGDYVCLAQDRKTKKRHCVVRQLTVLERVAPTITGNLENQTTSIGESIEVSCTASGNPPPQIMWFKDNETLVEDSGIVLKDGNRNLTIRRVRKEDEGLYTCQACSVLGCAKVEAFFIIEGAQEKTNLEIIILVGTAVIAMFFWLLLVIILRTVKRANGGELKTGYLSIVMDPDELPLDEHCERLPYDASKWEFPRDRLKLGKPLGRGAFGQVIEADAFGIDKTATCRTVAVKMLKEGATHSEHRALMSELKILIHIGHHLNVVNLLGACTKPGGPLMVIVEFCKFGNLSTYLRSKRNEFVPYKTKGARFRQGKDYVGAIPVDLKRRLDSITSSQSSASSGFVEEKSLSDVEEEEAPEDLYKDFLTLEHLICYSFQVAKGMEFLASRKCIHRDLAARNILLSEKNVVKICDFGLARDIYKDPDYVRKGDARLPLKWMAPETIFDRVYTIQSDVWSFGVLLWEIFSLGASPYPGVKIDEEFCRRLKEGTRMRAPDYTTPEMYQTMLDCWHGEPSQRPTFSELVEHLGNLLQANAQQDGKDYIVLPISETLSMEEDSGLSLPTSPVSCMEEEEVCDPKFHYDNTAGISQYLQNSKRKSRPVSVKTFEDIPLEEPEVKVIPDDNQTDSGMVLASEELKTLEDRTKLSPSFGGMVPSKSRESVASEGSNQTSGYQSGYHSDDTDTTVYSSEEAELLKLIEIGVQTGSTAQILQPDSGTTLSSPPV
Protocol: as §1, §2, §3, §4

LYNA = LYNA (Homo sapiens (Human), UniProt P07948); test: as above; conditions: for inhibition at 1 µM: read-out: % inhibition (1 μM), 1 μM; for inhibition at 10 µM: read-out: % inhibition (10 μM), 10 μM
Protocol: as §1, §2, §3, §4

PDGFRa = PDGFRa (Homo sapiens (Human), UniProt P16234); test: as above; conditions: for inhibition at 1 µM: read-out: % inhibition (1 μM), 1 μM; for inhibition at 10 µM: read-out: % inhibition (10 μM), 10 μM
Protocol: as §1, §2, §3, §4

PIM1 = PIM1 (Homo sapiens (Human), UniProt P11309); test: as above; conditions: for inhibition at 1 µM: read-out: % inhibition (1 μM), PIM1, 1 μM; for inhibition at 10 µM: read-out: % inhibition (10 μM), PIM1, 10 μM
Protocol: as §1, §2, §3, §4

PKACa = PKACa (Homo sapiens (Human), UniProt P17612); test: as above; conditions: for inhibition at 1 µM: read-out: % inhibition (1 μM), 1 μM; for inhibition at 10 µM: read-out: % inhibition (10 μM), 10 μM
Protocol: as §1, §2, §3, §4

SRC = SRC (Homo sapiens (Human), UniProt P12931); test: as above; conditions: for inhibition at 1 µM: read-out: % inhibition (1 μM), 1 μM; for inhibition at 10 µM: read-out: % inhibition (10 μM), 10 μM
Sequence of SRC (P12931 whole entry, looked up, species assumed): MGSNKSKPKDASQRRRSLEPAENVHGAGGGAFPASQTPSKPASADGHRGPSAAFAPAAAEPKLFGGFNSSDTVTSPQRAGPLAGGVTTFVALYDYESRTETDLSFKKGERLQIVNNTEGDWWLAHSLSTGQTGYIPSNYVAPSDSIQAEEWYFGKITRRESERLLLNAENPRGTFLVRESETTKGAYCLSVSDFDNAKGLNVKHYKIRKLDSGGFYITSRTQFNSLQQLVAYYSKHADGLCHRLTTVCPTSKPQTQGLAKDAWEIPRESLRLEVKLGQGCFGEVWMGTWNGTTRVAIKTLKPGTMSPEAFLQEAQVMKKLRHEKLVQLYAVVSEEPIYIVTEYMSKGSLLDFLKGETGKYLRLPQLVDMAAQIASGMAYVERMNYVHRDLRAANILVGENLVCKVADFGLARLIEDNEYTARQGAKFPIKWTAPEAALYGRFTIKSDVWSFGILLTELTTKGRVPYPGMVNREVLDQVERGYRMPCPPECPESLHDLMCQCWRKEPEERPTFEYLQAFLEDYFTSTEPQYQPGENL
Protocol: as §1, §2, §3, §4

cKit = cKit (Homo sapiens (Human), UniProt P10721); test: as above; conditions: for inhibition at 1 µM: read-out: % inhibition (1 μM), 1 μM; for inhibition at 10 µM: read-out: % inhibition (10 μM), 10 μM
Sequence of cKit (P10721 26-976): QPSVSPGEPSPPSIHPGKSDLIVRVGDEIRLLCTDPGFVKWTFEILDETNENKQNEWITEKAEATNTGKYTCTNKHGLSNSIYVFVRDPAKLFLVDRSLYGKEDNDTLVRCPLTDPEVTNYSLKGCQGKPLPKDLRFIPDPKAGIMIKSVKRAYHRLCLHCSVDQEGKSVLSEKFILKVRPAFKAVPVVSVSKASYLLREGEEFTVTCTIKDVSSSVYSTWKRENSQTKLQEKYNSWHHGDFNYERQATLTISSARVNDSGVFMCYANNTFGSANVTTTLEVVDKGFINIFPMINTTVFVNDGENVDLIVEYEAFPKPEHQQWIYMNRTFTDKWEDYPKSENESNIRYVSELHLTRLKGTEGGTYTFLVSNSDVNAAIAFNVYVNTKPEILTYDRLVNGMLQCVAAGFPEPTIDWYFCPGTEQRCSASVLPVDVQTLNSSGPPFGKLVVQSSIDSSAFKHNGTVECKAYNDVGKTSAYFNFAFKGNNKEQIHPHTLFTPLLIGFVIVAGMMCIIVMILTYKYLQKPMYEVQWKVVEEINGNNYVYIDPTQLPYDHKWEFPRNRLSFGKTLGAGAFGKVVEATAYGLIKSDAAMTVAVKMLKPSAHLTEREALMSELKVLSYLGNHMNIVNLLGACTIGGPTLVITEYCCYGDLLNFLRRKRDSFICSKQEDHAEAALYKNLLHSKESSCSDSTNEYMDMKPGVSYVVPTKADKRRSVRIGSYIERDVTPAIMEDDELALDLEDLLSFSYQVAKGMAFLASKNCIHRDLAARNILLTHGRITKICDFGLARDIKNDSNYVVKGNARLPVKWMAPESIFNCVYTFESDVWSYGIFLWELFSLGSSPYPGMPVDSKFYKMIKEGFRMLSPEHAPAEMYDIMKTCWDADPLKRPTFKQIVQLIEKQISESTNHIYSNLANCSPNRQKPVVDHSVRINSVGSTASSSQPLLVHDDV
Protocol: as §1, §2, §3, §4

BRAF = BRAF (Homo sapiens (Human), UniProt P15056); test: Kinase selectivity analysis (BRAF analysis); conditions: for inhibition at 1 µM: read-out: % inhibition (1 μM), 1 μM; for inhibition at 10 µM: read-out: % inhibition (10 μM), 10 μM
Protocol: as §1
1. Preparation of 1× Kinase Buffer: 50 mM HEPES, pH 7.5, 10 mM MgCl2, 1 mM EGTA, 0.01% BRIJ-35.
2. Preparation of compounds for BRAF kinase test: 1) serial dilution of compound and preparation of stock solution plate. The compound was diluted in 100% DMSO to a concentration, which was 100 times of the highest concentration used in reaction, and 100 μL of the compound solution as said above was transferred into wells of 96-well plate. 30 μL of compound solution was transferred into 60 μL of 100% DMSO in the adjacent well, and the above operation was repeated for sequentially diluting the compound. 100 μL of 100% DMSO was added into two blank wells as no-compound and no-enzyme control, the plate was marked as stock solution plate. 2) Preparation of temporary plate. 4 μL of compound solution from the stock solution plate was transferred to another 96-well plate, 96 μL of 1× kinase buffer was added into each well, and the temporary plate was placed on a shaker and shaken for 10 mins for uniformly mixing the compound. 3) Preparation of assay plate. 2.5 μL of solution from each well of the 96-well temporary plate was added into a 384-well plate, and the experiment was independently repeated.
3. Kinase BRAF reaction: 1) Preparation of 2× kinase solution. BRAF solution was prepared in 1× kinase buffer, the concentration of which was 2 times of the final concentration in the test. 5 μL of kinase solution was added into each well of the assay plate (except for control well, into which 5 μL of 1× kinase buffer was added), and the assay plate was shaken. 2) Preparation of 4× substrate solution. Fluorescein-MAP2K1, ATP substrate solution was prepared in 1× kinase buffer, the concentration of which was 4 times of the final concentration in the test. 2.5 μL of substrate solution was added into each well of the assay plate to start the reaction, and the assay plate was shaken. 3) The kinase reaction was conducted by incubating at room temperature for 1 hour.
4. Kinase assay. Test solution was prepared in antibody dilution buffer, the concentration of which was 2 times of the following final concentration: antibody 2 nM, EDTA […]. 10 μL of test solution was added into each well of the assay plate to quench the assay. […]
5. Read data: the data was read on Envision (excitation at 340 nm, emission at 520 nm, […]).
6. […] The rate of RFU […] was calculated and converted into inhibition rate % Inhibition rate %=(maximum−rate of sample)/(maximum−minimum)*100, wherein “maximum” represents DMSO control rate, and “minimum” represents the no-enzyme control rate. […]

IC50 (EGFR-L858R)	inhibition at 1 µM (AUR B)	inhibition at 10 µM (AUR B)	inhibition at 1 µM (C-MET)	inhibition at 10 µM (C-MET)	inhibition at 1 µM (CDK2)	inhibition at 10 µM (CDK2)	inhibition at 1 µM (ERK1)	inhibition at 10 µM (ERK1)	inhibition at 1 µM (FGFR1)	inhibition at 10 µM (FGFR1)	inhibition at 1 µM (FLT1)	inhibition at 10 µM (FLT1)	inhibition at 1 µM (GSK3b)	inhibition at 10 µM (GSK3b)	inhibition at 1 µM (JAK2)	inhibition at 10 µM (JAK2)	inhibition at 1 µM (KDR)	inhibition at 10 µM (KDR)	inhibition at 1 µM (LYNA)	Compound	also measured
1.2 nM	52%	87%	27%	53%	18%	49%	1.3%	19%	19%	63%	17%	58%	16%	34%	22%	36%	25%	73%	11%	C=CC(=O)Nc1cccc(-n2c(=O)cnc3cnc(Nc4ccc(N5CCN(C)CC5)cc4)nc32)c1 [Compound 020, N-(3-(2-(4-(4-methyl-1-piperazinyl)-phenylamino)-7-oxo-8(7H)-pteridin-yl)phenyl) acrylamide]	inhibition at 10 µM (LYNA): 40%; inhibition at 1 µM (PDGFRa): 4.9%; inhibition at 10 µM (PDGFRa): 35%; inhibition at 1 µM (PIM1): 8.2%; inhibition at 10 µM (PIM1): 54%; inhibition at 1 µM (PKACa): 15%; inhibition at 10 µM (PKACa): 4.7%; inhibition at 1 µM (SRC): 27%; inhibition at 10 µM (SRC): 72%; inhibition at 1 µM (cKit): -12%; inhibition at 10 µM (cKit): -3.2%; inhibition at 1 µM (BRAF): -7%; inhibition at 10 µM (BRAF): 21%
2.36 nM	32%	69%	13%	28%	25%	48%	11%	-4%	7.9%	42%	9.4%	11%	12%	16%	9.9%	22%	3.8%	29%	6.1%	C=CC(=O)Nc1cccc(-n2c(=O)cnc3cnc(Nc4ccc(N5CCN(C)CC5)cc4OC)nc32)c1 [Compound 032, N-(3-(2-(2-methoxy-4-(4-methyl-1-piperazinyl)-phenylamino)-7-oxo-8(7H)-pteridin-yl)phenyl)acrylamide]	inhibition at 10 µM (LYNA): 20%; inhibition at 1 µM (PDGFRa): 1.2%; inhibition at 10 µM (PDGFRa): 18%; inhibition at 1 µM (PIM1): 2.1%; inhibition at 10 µM (PIM1): 8.9%; inhibition at 1 µM (PKACa): 6.9%; inhibition at 10 µM (PKACa): 4%; inhibition at 1 µM (SRC): 6.6%; inhibition at 10 µM (SRC): 33%; inhibition at 1 µM (cKit): -9.3%; inhibition at 10 µM (cKit): -4.8%; inhibition at 1 µM (BRAF): 0.35%; inhibition at 10 µM (BRAF): -5.2%
